Experimental data: publication PMC7821381, “Multi-Targeted Anticancer Activity of Imidazolate Phosphane Gold(I) Compounds by Inhibition of DHFR and TrxR in Breast Cancer Cells” (Frontiers in Chemistry, 2021)

Legend:
[1] = test system: thioredoxin reductase (TrxR); conditions: A17, 12 h treatment, 6 μM (maximum inhibition); control 4.95 ± 0.08
Protocol: The assay was performed as previously reported (Galassi et al., [2012]) in 0.2 M Na, K-phosphate buffer (pH 7.4) containing 2 mM EDTA. The assay contained 0.12 mM NADPH and different amounts of cell lysate. The reaction was initiated by the addition of 3 mM 5,5′-dithiobis (2-nitrobenzoic acid) (DTNB) and the increase of absorbance was monitored at 412 nm over 5 min at 25°C.
Fig. 3S. Effects of gold(I) compounds 5 and 6 on redox enzyme thioredoxine reductase in A17 cancer cells. Cells were incubated for 12 hours with different amount of tested compounds 5 and 6. After incubation, cells were washed twice with PBS and lysed. TrxR activity was tested by measuring NADPH-dependent reduction of DTNB (Galassi et al, 2012).

EB-ct-DNA = experiment: Competitive binding fluorescence study with EtBr (EB-ct-DNA); set-up: species or system calf; conditions: competitive EtBr displacement, fluorescence quenching, pH 7.4
Description: EtBr weakly emits fluorescence in aqueous solutions (Pasternack et al., [1983]), however in presence of ct-DNA strongly emits at ~600 nm due to strong intercalation between adjacent DNA base pairs. Ethidium bromide (EB) can be employed as a probe for the spectroscopic study of the interaction between DNA and intercalating species because of a 24-fold decrease in its fluorescence when displaced from an intercalation site by the addition of a competitive binding molecule probably due to decreasing in the number of binding sites accessible to EtBr (Tong et al., [2012]). […] Fluorescence quenching spectra were recorded using a Hitachi 4,500 spectrofluorometer with an excitation wavelength of 490 nm and emission spectrum 500–700 nm. The fluorescence spectra were recorded and the fluorescence value of the decrease in emission spectra was corrected according to the relationship:
where Fc and Fm are the corrected and measured fluorescence, respectively. A1 and A2 are the absorbance of tested compounds at the exciting and emission wavelengths. For fluorescence quenching experiments, Stern-Volmer's equation was used (Equation 3): […]

DAPI-ct-DNA complex = experiment: Minor groove displacement assay with DAPI (DAPI-ct-DNA); type: binding, calf; conditions: competitive DAPI displacement, fluorescence quenching, pH 7.4
Protocol: The changes in the emission spectra of DAPI complex with the DNA in 10 mM tris-HCl buffer at pH 7.4, 10 mM NaCl, were monitored upon addition of increasing concentrations of gold-compounds 5 and 6 at room temperature. Fluorescence quenching data were evaluated after excitation of DAPI-ct-DNA complex at 338 nm and recording the spectra from 400 to 600 nm. Values of Ksv constants were evaluated using Equation 3 and the quenching fluorescence values obtained were corrected according to Equation 2.

[2] = biological target: T1, bovine serum albumin (BSA) (Bos taurus, UniProt P02769); experiment: BSA tryptophan fluorescence quenching; type: binding; conditions: Stern-Volmer constant, Tris-HCl pH 7.4, room temperature
T1 construct: purchased Sigma Aldrich
T1 sequence (P02769 25-607): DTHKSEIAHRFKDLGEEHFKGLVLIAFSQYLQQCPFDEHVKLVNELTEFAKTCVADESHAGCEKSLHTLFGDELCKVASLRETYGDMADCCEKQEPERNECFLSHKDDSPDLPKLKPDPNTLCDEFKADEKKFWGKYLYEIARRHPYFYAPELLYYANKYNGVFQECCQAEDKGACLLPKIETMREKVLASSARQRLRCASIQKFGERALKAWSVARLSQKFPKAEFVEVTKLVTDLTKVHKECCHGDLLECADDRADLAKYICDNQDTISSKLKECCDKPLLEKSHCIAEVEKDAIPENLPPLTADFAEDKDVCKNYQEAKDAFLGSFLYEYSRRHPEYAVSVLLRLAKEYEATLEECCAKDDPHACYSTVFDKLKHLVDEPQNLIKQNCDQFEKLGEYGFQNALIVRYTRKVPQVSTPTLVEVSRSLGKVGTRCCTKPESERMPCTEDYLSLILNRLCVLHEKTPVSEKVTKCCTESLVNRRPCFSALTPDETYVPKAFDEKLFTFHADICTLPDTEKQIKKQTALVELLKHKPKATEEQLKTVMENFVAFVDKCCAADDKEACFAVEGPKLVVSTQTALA
Protocol: The protein-binding studies were performed by tryptophan fluorescence quenching experiments using bovine serum albumin (BSA) from Sigma Aldrich prepared in 10 mM Tris-HCl buffer pH 7.4, 10 mM NaCl. The concentration was determined by measuring the absorbance at 280 nm. Assuming a molecular weight of 66,400 and a molar extinction coefficient at 280 nm of 43,824 M^−1 cm^−1. Fluorescence measurements were recorded on a Hitachi 4,500 spectrofluorometer by keeping the concentration of BSA constant (15 × 10^−6 M) while increasing compounds 5 or 6 concentrations (5 mM in DMSO) were added to protein solution at room temperatures. Protein fluorescence intensity was recorded after each successive addition of gold compound solution and equilibration (ca. 5 min). Fluorescence spectra were recorded from 300 to 450 nm at an excitation wavelength of 285 nm. The value of Stern Volmer constants of the different metal complexes to BSA was evaluated following Equation 3 and fluorescent values were corrected by Equation 2.
Protein fluorescence intensity was recorded after each successive addition of complex solution and equilibration (ca. 5 min). Fluorescence spectra were recorded from 300 to 450 nm at an excitation wavelength of 285 nm. The value of Stern Volmer constants of the different metal complexes to BSA were evaluated following the equation 3 and fluorescent values were corrected by equation 2.

Substance | Specific enzymatic activity of TrxR [1] | EB-ct-DNA Ksv (EB-ct-DNA) | DAPI-ct-DNA Ksv (DAPI-ct-DNA complex) | BSA Ksv [2]
4,5-dichloro-imidazolate-1yl-gold(I)-(triphenylphosphane) [Compound 6] | 4.21 ± 0.09 (6 μM) mU/mg | 4.22 ± 0.34 10^3 M^−1 | 4.98 ± 0.08 10^3 M^−1 | 2.04 ± 0.71 10^4 M^−1
4,5-dicyano-imidazolate-1yl-gold(I)-(triphenylphosphane) [Compound 5] | 1.84 ± 0.06 (6 μM) mU/mg | 1.55 ± 0.34 10^3 M^−1 | 6.12 ± 0.09 10^3 M^−1 | 2.46 ± 0.82 10^4 M^−1
